Test results reported in paper PMC8498107 (Frontiers in Molecular Neuroscience, 2021).

Columns and labels:
[1] = test system: heteromeric αβ channels versus homomeric α subunit GlyRs; design: method as in Pribilla et al., 1992; details: heteromeric αβ channels almost unaffected; ref Pribilla et al., 1992; cited from earlier work
[2] = test system: α1β^x channels; test: picrotoxinin block of the glycine-gated response, whole-cell patch-clamp in HEK-293 cells; format: cell-based, human; details: 100 μM glycine + 100 μM picrotoxinin compared to 100 μM glycine alone
Method: (§1) Full-length cDNAs encoding the human wild-type (WT) or mutated GlyR β variants (β^x) (with x = Y252S, S321F, and A455P) were cloned into the eukaryotic expression vector pRK5 (gift from †P. Seeburg, Heidelberg) and mutagenesis was performed as previously described ([James et al., 2013]). GlyR β variants were further subcloned into pRK5 harboring a myc-epitope at the N-terminus 5′ of residues ^1KEKS^4 representing the first amino acids of the mature GlyR β sequence. eGFP-gephyrin constructs were previously described ([Harvey et al., 2004]). All expression constructs were fully sequenced to verify successful mutagenesis.
HEK-293 cells were transiently transfected using a modified calcium-phosphate precipitation method. Transfection was performed at a confluency of 50–75%, 24 h after seeding of 200,000 cells on glass cover slips in 35 mm culture dishes or 1.5 × 10^6 cells per 10 cm dish. […]
(§2) Electrophysiological characterization was performed on transfected HEK-293 cells using the patch-clamp method for whole cell recordings. […] Current responses were amplified with an EPC-9 amplifier (HEKA Elektronik GmbH, Lambrecht/Pfalz, Germany) and measured at a holding potential of −60 mV using PatchMaster Next software (HEKA Elektronik GmbH, Lambrecht/Pfalz, Germany).

[3] = target: T1, GlyR α1β^A455P (Homo sapiens, UniProt P23415+P48167, A477P); format: cell-based
T1 construct: Full-length cDNAs encoding the human wild-type (WT) or mutated GlyR β variants; expressed in transfected cells; host or cells: HEK-293
Method: as §1
(§3) HEK-293 cells were transiently transfected using a modified calcium-phosphate precipitation method. Transfection was performed at a confluency of 50–75%, 24 h after seeding of 200,000 cells on glass cover slips in 35 mm culture dishes or 1.5 × 10^6 cells per 10 cm dish. For 35 mm and 10 cm culture dishes GlyR α1, GlyR β or GlyR β variants and eGFP-gephyrin were transfected in a ratio of cDNAs 1:10:5, e.g., 0.2 μg α1, 2 μg β, and 1 μg of eGFP-gephyrin for 35 mm dishes. To label cellular compartments, low copy number vectors were used to exclude effects from overexpression [1 μg; dsRed MEM = fusion of sequence from neuromodulin (GAP-43) and dsRed to label the plasma membrane or dsRed ER = fusion construct of dsRed and calreticulin sequence to label the ER]. The DNA was supplied with 2.5 M CaCl2, 0.1x TE buffer and 2x HBS buffer (50 mM HEPES, 12 mM glucose, 10 mM KCl, 280 mM NaCl, 1.5 mM Na2HPO4) mixed and incubated for 20 min at room temperature. The medium was exchanged after 4–6 h and cells were used for experiments 24–48 h after transfection.
as §2, with “recordings. Experiments were performed at room temperature.” for “recordings.”

[4] = target: T2, GlyR α1β (wild-type) (Homo sapiens, UniProt P23415+P48167); format: cell-based
T2 construct: Full-length cDNAs encoding the human wild-type (WT) or mutated GlyR β variants; expressed in transfected cells; host or cells: HEK-293
Method: as §1, §3
as §2, with “recordings. Experiments were performed at room temperature.” for “recordings.”

[5] = target: T3, GlyR α1β^Y252S (Homo sapiens, UniProt P23415+P48167, Y274S); format: cell-based
T3 construct: Full-length cDNAs encoding the human wild-type (WT) or mutated GlyR β variants; expressed in transfected cells; host or cells: HEK-293
Method: as §1, §3
as §2, with “recordings. Experiments were performed at room temperature.” for “recordings.”

[6] = target: T4, GlyR α1β^S321F + eGFP-gephyrin (Homo sapiens, UniProt P23415+P48167, S343F); format: cell-based
T4 construct: Full-length cDNAs encoding the human wild-type (WT) or mutated GlyR β variants; expressed in transfected cells; host or cells: HEK-293
Method: as §1, §3
as §2, with “recordings. Experiments were performed at room temperature.” for “recordings.”

[7] = target: T5, GlyR α1β^A455P + eGFP-gephyrin (Homo sapiens, UniProt P23415+P48167, A477P); format: cell-based
T5 construct: Full-length cDNAs encoding the human wild-type (WT) or mutated GlyR β variants; expressed in transfected cells; host or cells: HEK-293
Method: as §1, §3
as §2, with “recordings. Experiments were performed at room temperature.” for “recordings.”

[8] = target: T6, GlyR α1β (wild-type) + eGFP-gephyrin (Homo sapiens, UniProt P23415+P48167); format: cell-based
T6 construct: Full-length cDNAs encoding the human wild-type (WT) or mutated GlyR β variants; expressed in transfected cells; host or cells: HEK-293
Method: as §1, §3
as §2, with “recordings. Experiments were performed at room temperature.” for “recordings.”

[9] = target: T7, GlyR α1β^Y252S + eGFP-gephyrin (Homo sapiens, UniProt P23415+P48167, Y274S); format: cell-based
T7 construct: Full-length cDNAs encoding the human wild-type (WT) or mutated GlyR β variants; expressed in transfected cells; host or cells: HEK-293
Method: as §1, §3
as §2, with “recordings. Experiments were performed at room temperature.” for “recordings.”

[10] = target: T8, GlyR α1β^S321F (Homo sapiens, UniProt P23415+P48167, S343F); format: cell-based
T8 construct: Full-length cDNAs encoding the human wild-type (WT) or mutated GlyR β variants; expressed in transfected cells; host or cells: HEK-293
Method: as §1, §3
as §2, with “recordings. Experiments were performed at room temperature.” for “recordings.”

[11] = target: T9, GlyR α1 homomers (Homo sapiens, UniProt P23415); test: picrotoxinin block of the glycine-gated response, whole-cell patch-clamp in HEK-293 cells; format: cell-based; details: 100 μM glycine + 100 μM picrotoxinin compared to 100 μM glycine alone
T9 construct: expressed in transfected cells; host or cells: HEK-293
T9 sequence (P23415 29-457): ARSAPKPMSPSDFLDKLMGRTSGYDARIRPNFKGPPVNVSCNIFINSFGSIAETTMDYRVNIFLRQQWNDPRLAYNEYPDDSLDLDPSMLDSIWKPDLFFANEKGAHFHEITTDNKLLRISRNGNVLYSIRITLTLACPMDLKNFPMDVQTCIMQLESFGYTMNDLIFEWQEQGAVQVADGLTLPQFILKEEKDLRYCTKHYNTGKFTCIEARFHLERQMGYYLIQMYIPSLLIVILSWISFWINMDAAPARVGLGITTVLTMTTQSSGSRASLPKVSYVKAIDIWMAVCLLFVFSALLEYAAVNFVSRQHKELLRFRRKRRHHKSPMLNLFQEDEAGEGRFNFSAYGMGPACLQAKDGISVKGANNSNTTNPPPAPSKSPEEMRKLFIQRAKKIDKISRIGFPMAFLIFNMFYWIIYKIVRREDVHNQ
Method: as §3, with “The medium was exchanged after 4–6 h and cells were used for experiments 24–48 h after transfection.” left out
as §2

[12] = test system: hyperekplexia phenotype; design: method as in Bode and Lynch, 2014; details: clinical, gain-of-function and loss-of-function mutations; ref Bode and Lynch, 2014; cited from earlier work
[13] = residual current, 100 μM picrotoxinin + 100 μM glycine versus 100 μM glycine alone
[14] = in the presence of eGFP-gephyrin, remaining current, 100 μM glycine + 100 μM picrotoxinin versus 100 μM glycine alone

T3 sequence (P48167 23-497 Y274S, one chain of several): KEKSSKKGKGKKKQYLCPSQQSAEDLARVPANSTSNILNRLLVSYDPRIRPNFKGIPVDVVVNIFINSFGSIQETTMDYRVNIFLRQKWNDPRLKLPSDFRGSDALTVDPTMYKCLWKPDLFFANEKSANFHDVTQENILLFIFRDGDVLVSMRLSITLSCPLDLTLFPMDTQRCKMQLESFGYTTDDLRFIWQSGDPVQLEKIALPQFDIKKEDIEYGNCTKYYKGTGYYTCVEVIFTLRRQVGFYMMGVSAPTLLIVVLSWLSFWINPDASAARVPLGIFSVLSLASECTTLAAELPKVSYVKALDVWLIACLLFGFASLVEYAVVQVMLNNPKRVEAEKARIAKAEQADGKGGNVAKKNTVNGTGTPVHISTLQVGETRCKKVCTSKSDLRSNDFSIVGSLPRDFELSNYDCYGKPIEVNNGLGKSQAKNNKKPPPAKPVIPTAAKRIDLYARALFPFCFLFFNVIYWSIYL
T8 sequence (P48167 23-497 S343F, one chain of several): as the sequence (P48167 23-497 Y274S, one chain of several) above, with S252Y, S321F counted along it
T4 sequence (P48167 23-497 S343F, one chain of several): as the sequence (P48167 23-497 Y274S, one chain of several) above, with S252Y, S321F counted along it
T1 sequence (P48167 23-497 A477P, one chain of several): as the sequence (P48167 23-497 Y274S, one chain of several) above, with S252Y, A455P counted along it
T6 sequence (P48167 23-497, one chain of several): as the sequence (P48167 23-497 Y274S, one chain of several) above, with S252Y counted along it
T7 sequence (P48167 23-497 Y274S, one chain of several): as the sequence (P48167 23-497 Y274S, one chain of several) above
T2 sequence (P48167 23-497, one chain of several): as the sequence (P48167 23-497 Y274S, one chain of several) above, with S252Y counted along it
T5 sequence (P48167 23-497 A477P, one chain of several): as the sequence (P48167 23-497 Y274S, one chain of several) above, with S252Y, A455P counted along it

In the case of picrotoxin, the “fold less effective on heteromeric αβ channels than on homomeric α subunit GlyRs” value [1] is listed as 50–200 fold.
In the case of `C=C(C)[C@@H]1[C@H]2OC(=O)[C@@H]1[C@]1(O)C[C@H]3O[C@]34C(=O)O[C@H]2[C@]14C` [picrotoxinin], the picrotoxinin block [2] is reported as 0–19%, the “I 100 μM picrotoxinin + glycine/I 100 μM glycine” value [3, 13] is reported as 86 ± 10% and the “I 100 μM picrotoxinin + glycine/I 100 μM glycine” value [4, 13] is reported as 90 ± 11%. The “I 100 μM picrotoxinin + glycine/I 100 μM glycine” value [5, 13] was 99 ± 19%, the “Ipicrotoxinin + glycine/ Iglycine” value [6, 14] was 73 ± 4% and the “Ipicrotoxinin + glycine/ Iglycine” value [7, 14] was 92 ± 17%. For the same compound, the “Ipicrotoxinin + glycine/ Iglycine” value [8, 14] was 72 ± 7%, the “Ipicrotoxinin + glycine/ Iglycine” value [9, 14] was 84 ± 9% and the “I 100 μM picrotoxinin + glycine/I 100 μM glycine” value [10, 13] was 111 ± 15%. For the same compound, the “reduction in current amplitude of the original value (block of the glycine-gated response)” value [11] was 29.22%.
With `NCC(=O)O` [glycine] the Imax [3] was 9.5 ± 1.2 nA, the Imax [4] was 4.1 ± 0.4 nA and the Imax [5] was 4.7 ± 0.6 nA. It also gave an Imax [6] of 4.1 ± 0.7 nA, an Imax [7] of 6.6 ± 1.1 nA and an Imax [8] of 2.9 ± 1.0 nA. It also gave an Imax [9] of 3.7 ± 0.9 nA and an Imax [10] of 5.1 ± 0.7 nA.
In the case of `O=C1CN=C(c2ccccc2Cl)c2cc([N+](=O)[O-])ccc2N1` [clonazepam], the “treatment of the hyperekplexia phenotype” value [12] is given as “effective treatment in many cases”.
